1 compound from paper PMC11214487, “YZL-51N functions as a selective inhibitor of SIRT7 by NAD^+ competition to impede DNA damage repair” (iScience, 2024) can be followed below.

The target of assay [1] is T1, SIRT1 (Homo sapiens, UniProt Q96EB6).
T1 construct: endogenous in cells; host or cells: HCT116
T1 sequence (Q96EB6 1-747): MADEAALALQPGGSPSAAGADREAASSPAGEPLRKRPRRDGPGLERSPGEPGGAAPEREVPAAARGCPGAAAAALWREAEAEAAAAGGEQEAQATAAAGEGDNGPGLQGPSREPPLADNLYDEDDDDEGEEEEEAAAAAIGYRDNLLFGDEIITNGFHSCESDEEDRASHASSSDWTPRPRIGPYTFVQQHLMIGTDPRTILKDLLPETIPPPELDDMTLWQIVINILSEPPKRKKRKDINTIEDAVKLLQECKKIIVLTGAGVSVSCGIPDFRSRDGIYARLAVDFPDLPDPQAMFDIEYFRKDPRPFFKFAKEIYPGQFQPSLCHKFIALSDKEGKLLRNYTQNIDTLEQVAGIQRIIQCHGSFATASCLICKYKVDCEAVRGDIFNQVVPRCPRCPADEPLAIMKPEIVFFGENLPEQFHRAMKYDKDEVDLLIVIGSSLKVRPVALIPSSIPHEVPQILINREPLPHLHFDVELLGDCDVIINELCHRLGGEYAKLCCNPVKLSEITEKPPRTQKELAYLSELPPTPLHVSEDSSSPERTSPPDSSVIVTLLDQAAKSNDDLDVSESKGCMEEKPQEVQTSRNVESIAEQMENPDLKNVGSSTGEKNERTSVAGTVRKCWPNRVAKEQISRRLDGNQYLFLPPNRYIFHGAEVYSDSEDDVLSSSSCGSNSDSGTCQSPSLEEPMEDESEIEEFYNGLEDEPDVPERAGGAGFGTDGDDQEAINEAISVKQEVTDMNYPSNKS
The experiment in a line: Cellular thermal shift assay in HCT116 cell lysates. It counts as binding. The note with it: 20 μM. The procedure:
(§1) Cellular thermal shift assays were performed according to previously reported methods with some modifications.[66] Briefly, HCT116 cells were lysed with RIPA buffer and incubated with 20 μM YZL-51N or DMSO for 1 h on ice. Subsequently, cell lysates were divided into 70 μL aliquots and heated individually at different temperatures for 4 min following by cooling on ice. The heated lysates were centrifuged, and 50 μL supernatants were taken for SDS-PAGE and immunoblotting analysis with the indicated antibodies.

Assay [2] deals with T2, SIRT7 (Homo sapiens, UniProt Q9NRC8).
T2 construct: His-tagged full length SIRT7 protein expression from BL21 bacterial cells; His; made in house; host or cells: E. coli BL21
T2 sequence (Q9NRC8 1-400): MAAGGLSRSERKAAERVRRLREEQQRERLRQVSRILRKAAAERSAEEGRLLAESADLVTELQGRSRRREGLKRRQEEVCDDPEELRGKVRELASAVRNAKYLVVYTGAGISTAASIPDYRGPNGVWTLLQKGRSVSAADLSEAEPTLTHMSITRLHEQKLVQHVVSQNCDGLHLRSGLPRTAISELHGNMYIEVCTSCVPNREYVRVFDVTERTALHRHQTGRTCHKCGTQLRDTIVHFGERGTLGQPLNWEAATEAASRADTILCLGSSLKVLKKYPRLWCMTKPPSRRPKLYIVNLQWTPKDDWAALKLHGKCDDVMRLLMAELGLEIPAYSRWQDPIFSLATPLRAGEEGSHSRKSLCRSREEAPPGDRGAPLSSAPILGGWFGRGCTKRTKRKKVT
The description is as above. It counts as binding. The note with it: 20 μM. The method, then: as §1

Assay [3] deals with HCT116 cells. The experiment in a line: Western blot of histone acetylation in treated cells. It counts as cell-based, human. The note with it: HCT116, 0-40 μM, 8 h. The method, then:
After drug treatment, the cells were lysed in RIPA lysis buffer. […] The membranes were then blocked with 5% skimmed milk in TBST and incubated overnight at 4°C with the primary antibodies followed by incubation with HRP-conjugated secondary antibodies. The protein bands were then detected using the ECL substrates and visualized with Tanon 5200SF Imaging System.
Background: In western blotting, separated proteins are transferred to a membrane and probed.

Take `COC(=O)/C(=C\C(=O)c1ccc(O)c(O)c1)c1ccc(O)c(O)c1` [YZL-51N]: the “Effect on the melting curve” value in assay [1] is “no obvious effect”. Moreover, the “Shift in the melting curve” value in assay [2] came to 5.2 °C. The “Level of H3K18ac” value in assay [3] is “increased”.
